Target: GST-LSD1 (Homo sapiens, UniProt O60341)
Conditions: for k(inact) / KI (inactivation): GST-LSD1, peroxidase-coupled assay; for k(inact)/Ki(inact): GST-LSD1 inactivation efficiency; for KI (inactivation): extrapolated to zero substrate

Row | SMILES | k(inact) | k(inact)/Ki(inact) | LSD1 inhibitory potency (in words) (structure-activity comment on Table 1) | KI (inactivation)
1 | NNCCc1ccc(NC(=O)CCc2ccccc2)cc1.O=S(=O)(O)O [Compound 12c, N-[4-(2-Hydrazinylethyl)phenyl]-3-phenylpropanamide sulfate] | 0.24 ± 0.022 min⁻¹ | 15300 ± 3670 M⁻¹ s⁻¹ |  | 
2 | NNCCc1ccc(NC(=O)CCCc2ccc(Cl)cc2)cc1.O=S(=O)(O)O [Compound 12f, 4-(4-Chlorophenyl)-N-[4-(2-hydrazinylethyl)phenyl]butanamide sulfate] | 0.17 ± 0.018 min⁻¹ | 18300 ± 5830 M⁻¹ s⁻¹ |  | 
3 | COc1ccc(CCCC(=O)Nc2ccc(CCNN)cc2)cc1.O=S(=O)(O)O [Compound 12h, N-[4-(2-Hydrazinylethyl)phenyl]-4-(4-methoxyphenyl)butanamide sulfate] | 0.26 ± 0.042 min⁻¹ | 20000 ± 9500 M⁻¹ s⁻¹ |  | 207 ± 89 nM
4 | NNCCc1ccc(NC(=O)CCCc2ccc([N+](=O)[O-])cc2)cc1.O=S(=O)(O)O [Compound 12i, N-[4-(2-Hydrazinylethyl)phenyl]-4-(4-nitrophenyl)butanamide sulfate] | 0.21 ± 0.024 min⁻¹ | 12300 ± 3670 M⁻¹ s⁻¹ |  | 
5 | CS(=O)(=O)Oc1ccccc1CCC(=O)Nc1ccc(CCNN)cc1.O=C(O)C(=O)O [Compound 12j, 2-(3-{[4-(2-Hydrazinylethyl)phenyl]amino}-3-oxopropyl)phenyl methanesulfonate oxalate] | 0.18 ± 0.034 min⁻¹ | 14700 ± 7670 M⁻¹ s⁻¹ |  | 204 ± 98 nM
6 | CS(=O)(=O)Oc1cccc(CCC(=O)Nc2ccc(CCNN)cc2)c1.O=C(O)C(=O)O [Compound 12k, 3-(3-{[4-(2-Hydrazinylethyl)phenyl]amino}-3-oxopropyl)phenyl methanesulfonate oxalate] | 0.17 ± 0.020 min⁻¹ | 12700 ± 4000 M⁻¹ s⁻¹ |  | 223 ± 64 nM

Further lines, results first:

Row | k(inact) | k(inact)/Ki(inact) | LSD1 inhibitory potency (in words) (structure-activity comment on Table 1) | KI (inactivation) | SMILES
7 | 0.32 ± 0.010 min⁻¹ |  |  |  | Cl.Cl.NNCCCc1ccccc1 [Compound 9c, (3-Phenylpropyl)hydrazine dihydrochloride]
8 | 0.15 ± 0.023 min⁻¹ | 317 ± 145 M⁻¹ s⁻¹ | made little difference |  | COc1ccc(CCCNN)cc1.Cl.Cl [Compound 9e, [3-(4-Methoxyphenyl)propyl]hydrazine dihydrochloride]
9 | 0.12 ± 0.01 min⁻¹ | 91.7 ± 14.5 M⁻¹ s⁻¹ |  |  | Cl.Cl.NNCCCCc1ccccc1 [Compound 9h, (4-Phenylbutyl)hydrazine dihydrochloride]
10 | 0.15 ± 0.010 min⁻¹ | 56.7 ± 13.2 M⁻¹ s⁻¹ |  |  | Cl.Cl.NNCCOc1ccccc1 [Compound 10a, (2-Phenoxyethyl)hydrazine dihydrochloride]
11 | 0.22 ± 0.020 min⁻¹ | 300 ± 60 M⁻¹ s⁻¹ |  |  | Cl.Cl.NNCCCOc1ccccc1 [Compound 10b, (3-Phenoxypropyl)hydrazine dihydrochloride]
12 | 0.19 ± 0.036 min⁻¹ | 11700 ± 5170 M⁻¹ s⁻¹ |  |  | Cl.Cl.NNCCc1ccc(NC(=O)c2ccccc2)cc1 [Compound 12a, N-[4-(2-Hydrazinylethyl)phenyl]benzamide dihydrochloride]
13 | 0.20 ± 0.0087 min⁻¹ | 9000 ± 900 M⁻¹ s⁻¹ |  |  | Cl.Cl.NNCCc1ccc(NC(=O)Cc2ccccc2)cc1 [Compound 12b, N-[4-(2-Hydrazinylethyl)phenyl]-2-phenylacetamide dihydrochloride]
14 | 0.22 ± 0.038 min⁻¹ | 14300 ± 6500 M⁻¹ s⁻¹ |  |  | NNCCc1ccc(NC(=O)CCCCc2ccccc2)cc1.O=C(O)C(=O)O [Compound 12e, N-[4-(2-Hydrazinylethyl)phenyl]-5-phenylpentanamide oxalate]
15 | 0.24 ± 0.033 min⁻¹ | 2000 ± 750 M⁻¹ s⁻¹ |  |  | CN(C(=O)CCCc1ccccc1)c1ccc(CCNN)cc1.O=C(O)C(=O)O [Compound 12l, N-[4-(2-Hydrazinylethyl)phenyl]-N-methyl-4-phenylbutanamide oxalate]
